How the values were obtained:
Assay type in all cases: in vivo
sweet corn = test: Experiment 8: foliar application of LCO on sweet corn
From the text: Fertilizer (36-12-18) was applied to the corn field at 500 kg/ha before seeding. A machine planter was employed to sow sweet corn grain. Plot size was 4×4.5=18 M^2, and 6 rows/plot. To protect corn ears from raccoons and other animal damage, sweet corn plants were protected with an electric fence around the plots after silking. LCO was applied once 40 days after sowing or/and twice, 40 days after sowing and 58 days after sowing at a rate of 200 L/ha for the first application and 300 L/ha for the second application. Corn was harvested 80 days after sowing, from the two middle rows and corn ears reaching 12 cm or longer were counted as marketable.

Impatiens = test: Experiment 5: foliar application of LCO to bedding plants (Impatiens)
From the text: This is a growth room study. Seeds of garden plant species were selected on the basis of seed-purchase popularity (Norseco, Montreal), grown in trays of Pro-Mix (NB. trademarked name) Seeding Medium, and at some size were transplanted into trays of 36 and 32 wells containing the same medium. Growth proceeded under lights in the growth room. Some 2 weeks before expected flowering, 16 young plants were sprayed with each of various levels of LCO leaving control plants untreated. The results are presented in Table 5A on bud formation and where possible opened flowers.

[1] = test system: Red tomato (cv. Mountain Spring); test: Experiment 15: LCO application on early fruit number and yield, field tomato
Description: Red tomato seedlings (cv. Mountain Spring) were transplanted at their 4-leaf stage. 7 plants in one row were transplanted in each plot of 3.5×2.5M2. The row was covered with 65 cm width black plastic mulch, one week before transplanting. Fertilizer (10-52-10) solution of 250 pprn was applied into the planting hole through the mulch when transplanting (approx. 250 ml/plant). the drip irrigation system was set to twice a week and 4 hours each time, depending on the soil moisture. Plants were sprayed with LCO 15 days after transplant (5 ml/plant) and 29 days after transplant (20 ml/plant). Fruits were first harvested 67 days after transplant.

Tomato [2] = test: Experiment 16: LCO application on fruit number and weight at end of season; conditions: LCO applied once at 50 ng, 20-40 days after transplantation
From the text: Tomato seedlings (6 leaf-stage) were transplanted. The plants were watered on the day they were transplanted and whenever the soil was very dry during the season. Fertilizer (20-20-20) was applied at 250 kg/ha to the tomato field before transplantation. All tomato plants were supported with sticks when they were heavily loaded with fruit. Fruit yield was finally cumulated at the end of the season 115 days after transplant.

[3] = test system: greenhouse-grown tomato plants; test: Experiments 1 and 2: effect of LCO on tomato flowering; conditions: for difference in flowering between LCO treated plants and control: Experiment 2
Description: Two experiments were performed to investigate effect of LCO on plant's flowering using greenhouse-grown tomato plants.

Tomato [4] = test: Experiment 6: foliar application of LCO at variable growth stages, field tomato; design: Fruit # % vs. control / % of weight vs. control: concentration or dose not given beside the values
From the text: Tomato seedlings (6-leaf stage) were transplanted in farmland. The plants were watered on the day that they were transplanted and whenever the soil was very dry during the season. Fertilizer (20-20-20) was applied at 250 kg/ha to the tomato field before transplantation. All tomato plants were supported by sticks when they were heavily loaded with fruit. Fruit yield (in the table) was finally cumulated at the end of the season.

Cherry tomato = test: Experiment 14: LCO soil application on cherry tomatoes
Description: Cherry tomato seedlings (5-week old) were transplanted into 5″ pots in the greenhouse. LCO solutions were prepared with water and 50 ml/plant was applied to the soil in the pot after transplantation. Ripened fruit (orange or red) were collected 8 weeks after transplantation.

[5] = LCO applied 10 + 20 + 30 + 40 + 50 DATP
[6] = LCO applied 10 + 20 + 30 + 40 DATP

Substance: Lipo-chitooligosaccharides [LCO]
- Average Length (cm)/ear (sweet corn; 10^−7M once): 13.12 c cm
- Ear No/plant (sweet corn; 10^−7M once): 0.934
- Ear Weight (kg)/ha (sweet corn; 10^−7M once): 4383.3 kg/ha
- Ear/ha (sweet corn; 10^−7M once): 65416.7 ab /ha
- Marketable ears/ha (sweet corn; 10^−7M once): 25000.0 /ha
- Average Length (cm)/ear (sweet corn; 10^−7M twice): 13.81 ab cm
- Ear No/plant (sweet corn; 10^−7M twice): 0.935
- Ear Weight (kg)/ha (sweet corn; 10^−7M twice): 5000.0 kg/ha
- Ear/ha (sweet corn; 10^−7M twice): 70833.3 a /ha
- Marketable ears/ha (sweet corn; 10^−7M twice): 30416.7 /ha
- Average Length (cm)/ear (sweet corn; 10^−8M once): 13.24 bc cm
- Ear No/plant (sweet corn; 10^−8M once): 0.905
- Ear Weight (kg)/ha (sweet corn; 10^−8M once): 4800.0 kg/ha
- Ear/ha (sweet corn; 10^−8M once): 67083.3 ab /ha
- Marketable ears/ha (sweet corn; 10^−8M once): 26250.0 /ha
- Average Length (cm)/ear (sweet corn; 10^−8M twice): 13.64 abc cm
- Ear No/plant (sweet corn; 10^−8M twice): 0.856
- Ear Weight (kg)/ha (sweet corn; 10^−8M twice): 5150.0 kg/ha
- Ear/ha (sweet corn; 10^−8M twice): 62083.3 ab /ha
- Marketable ears/ha (sweet corn; 10^−8M twice): 30000.0 /ha
- Average Length (cm)/ear (sweet corn; 10^−9M once): 13.68 abc cm
- Ear No/plant (sweet corn; 10^−9M once): 0.928
- Ear Weight (kg)/ha (sweet corn; 10^−9M once): 4266.7 kg/ha
- Ear/ha (sweet corn; 10^−9M once): 68333.3 a /ha
- Marketable ears/ha (sweet corn; 10^−9M once): 29166.7 /ha
- Average Length (cm)/ear (sweet corn; 10^−9M twice): 13.43 bc cm
- Ear No/plant (sweet corn; 10^−9M twice): 0.886
- Ear Weight (kg)/ha (sweet corn; 10^−9M twice): 4033.3 kg/ha
- Ear/ha (sweet corn; 10^−9M twice): 56666.7 bc /ha
- Marketable ears/ha (sweet corn; 10^−9M twice): 25000.0 /ha
- total number of sweet corn ears (sweet corn; foliar application in the range of 10^−8-10^−7M): significantly increased
- Total Number of Impatiens buds (Impatiens; 20 ml/16 plants of 10^−7M LCO): 71
- Total Number of Impatiens buds (Impatiens; 20 ml/16 plants of 10^−8M LCO): 65
- Total Number of Impatiens buds (Impatiens; 20 ml/16 plants of 10^−9M LCO): 85
- Total Number of Impatiens buds (Impatiens; 50 ml/16 plants of 3 × 10^−8M LCO): 66
- optimal application ([1]; early fruit number and weight): 75 ng/plant
- early fruit number and weight ([1]; foliar spray 15 and 29 days after transplant): significantly increased
- increased fruit number (Tomato [2]): up to 33%
- LCO treated plants flowered 3 days earlier than control ([3]; Experiment 1): over 80%
- shift in time of flowering ([3]; Experiment 1): 3 days
- more plants flowering as compared to control ([3]; Experiment 1, day 4 of assessment): 35%
- more plants flowering as compared to control ([3]; Experiment 1, day I of assessment): 25%
- difference in flowering between LCO treated plants and control ([3]; day 3 of assessment): 20%
- difference in flowering between LCO treated plants and control ([3]; initially): 10%
- % of weight vs. control (Tomato [4]; [5]): 27.8%
- Average Weight (g/fruit) (Tomato [4]; [5]): 126.8 g/fruit
- Fruit # % vs. control (Tomato [4]; [5]): 38.41%
- Fruit on 24 plants (Tomato [4]; [5]): 1373a
- Weight (kg) per 24 plants (Tomato [4]; [5]): 174.07a kg
- % of weight vs. control (Tomato [4]; [6]): 12.0%
- Average Weight (g/fruit) (Tomato [4]; [6]): 128.0 g/fruit
- Fruit # % vs. control (Tomato [4]; [6]): 20.06%
- Fruit on 24 plants (Tomato [4]; [6]): 1191abc
- Weight (kg) per 24 plants (Tomato [4]; [6]): 152.50ab kg
- % of weight vs. control (Tomato [4]; LCO applied 10 + 20 + 30 DATP): 18.9%
- Average Weight (g/fruit) (Tomato [4]; LCO applied 10 + 20 + 30 DATP): 126.3 g/fruit
- Fruit # % vs. control (Tomato [4]; LCO applied 10 + 20 + 30 DATP): 29.23%
- Fruit on 24 plants (Tomato [4]; LCO applied 10 + 20 + 30 DATP): 1282ab
- Weight (kg) per 24 plants (Tomato [4]; LCO applied 10 + 20 + 30 DATP): 161.89ab kg
- % of weight vs. control (Tomato [4]; LCO applied 10 + 20 DATP): 12.7%
- Average Weight (g/fruit) (Tomato [4]; LCO applied 10 + 20 DATP): 136.4 g/fruit
- Fruit # % vs. control (Tomato [4]; LCO applied 10 + 20 DATP): 13.41%
- Fruit on 24 plants (Tomato [4]; LCO applied 10 + 20 DATP): 1125bc
- Weight (kg) per 24 plants (Tomato [4]; LCO applied 10 + 20 DATP): 153.43ab kg
- % of weight vs. control (Tomato [4]; LCO applied 10 DATP (7/4)): 10.8%
- Average Weight (g/fruit) (Tomato [4]; LCO applied 10 DATP (7/4)): 118.2 g/fruit
- Fruit # % vs. control (Tomato [4]; LCO applied 10 DATP (7/4)): 28.63%
- Fruit on 24 plants (Tomato [4]; LCO applied 10 DATP (7/4)): 1276ab
- Weight (kg) per 24 plants (Tomato [4]; LCO applied 10 DATP (7/4)): 150.88ab kg
- % of weight vs. control (Tomato [4]; LCO applied 20 DATP (7/15)): 20.3%
- Average Weight (g/fruit) (Tomato [4]; LCO applied 20 DATP (7/15)): 130.0 g/fruit
- Fruit # % vs. control (Tomato [4]; LCO applied 20 DATP (7/15)): 27.02%
- Fruit on 24 plants (Tomato [4]; LCO applied 20 DATP (7/15)): 1260ab
- Weight (kg) per 24 plants (Tomato [4]; LCO applied 20 DATP (7/15)): 163.78ab kg
- % of weight vs. control (Tomato [4]; LCO applied 30 DATP (7/25)): 17.6%
- Average Weight (g/fruit) (Tomato [4]; LCO applied 30 DATP (7/25)): 133.5 g/fruit
- Fruit # % vs. control (Tomato [4]; LCO applied 30 DATP (7/25)): 20.87%
- Fruit on 24 plants (Tomato [4]; LCO applied 30 DATP (7/25)): 1199abc
- Weight (kg) per 24 plants (Tomato [4]; LCO applied 30 DATP (7/25)): 160.11ab kg
- % of weight vs. control (Tomato [4]; LCO applied 40 DATP (8/8)): 14.5%
- Average Weight (g/fruit) (Tomato [4]; LCO applied 40 DATP (8/8)): 118.3 g/fruit
- Fruit # % vs. control (Tomato [4]; LCO applied 40 DATP (8/8)): 32.86%
- Fruit on 24 plants (Tomato [4]; LCO applied 40 DATP (8/8)): 1318ab
- Weight (kg) per 24 plants (Tomato [4]; LCO applied 40 DATP (8/8)): 155.89ab kg
- % of weight vs. control (Tomato [4]; LCO applied 50 DATP (8/18)): 13.6%
- Average Weight (g/fruit) (Tomato [4]; LCO applied 50 DATP (8/18)): 138.7 g/fruit
- Fruit # % vs. control (Tomato [4]; LCO applied 50 DATP (8/18)): 12.40%
- Fruit on 24 plants (Tomato [4]; LCO applied 50 DATP (8/18)): 1115bc
- Weight (kg) per 24 plants (Tomato [4]; LCO applied 50 DATP (8/18)): 154.62ab kg
- increased fruit number compared to untreated control (Tomato [4]; best of 9 treatments): up to 38.4%
- increased total fruit weight compared to untreated control (Tomato [4]; best of 9 treatments): up to 27.8%
- dose with best fruit enhancement at the early stage (Cherry tomato): 10 ng per plant

Reference: US20130244879A1, “USE OF LIPO-CHITOOLIGOSACCHARIDES TO INITIATE EARLY FLOWERING AND FRUIT DEVELOPMENT IN PLANTS AND RELATED METHODS AND COMPOSITIONS” (NOVOZYMES BIOLOGICALS HOLDING A/S, priority 2003, published 2013)
